Measured values as given in ChEMBL document CHEMBL6092142, “Discovery and preclinical profile of YK-2168, a differentiated selective CDK9 inhibitor in clinical development” (Bioorg Med Chem Lett, 2024).

How the values were obtained:
[1] = Selectivity index, ratio of IC50 for inhibition of CDK1 (unknown origin) to IC50 for inhibition of CDK9 (unknown origin)
[2] = Selectivity index, ratio of IC50 for inhibition of CDK2 (unknown origin) to IC50 for inhibition of CDK9 (unknown origin)
MV4-11 = assay: Antiproliferative activity against human MV4-11 cells assessed as cell viability; assay type: functional, cell-based
[3] = AUC (0 to 24 hrs) in CD-1 mouse at 2 mg/kg, iv; assay type: ADME, organism-based; conditions: CD-1, mouse, in vivo
[4] = Volume of distribution in CD-1 mouse at 2 mg/kg, iv; assay type: ADME, organism-based; conditions: CD-1, mouse, in vivo, read-out: Vd
[5] = Clearance in CD-1 mouse at 2 mg/kg, iv; assay type: ADME, organism-based; conditions: in vivo
[6] = Half life in CD-1 mouse at 2 mg/kg, iv; assay type: ADME, organism-based; conditions: CD-1, mouse, in vivo

| SMILES | Ratio IC50 [1] | Ratio IC50 [2] | IC50 (MV4-11) [nM] | AUC(0-t) [3] [µM·h] | Vd [4] [L/kg] | clearance [5] [mL/min/kg] | half-life [6] [min] |
| --- | --- | --- | --- | --- | --- | --- | --- |
| COCC(C)N1CCC(c2cc3c(-c4cnn(CC5CC5)c4)c(Cl)cnc3[nH]2)CC1 (stereo unspecified) | 107 | 41 | 52 | – | – | – | – |
| c1cc(-c2cnn(CC3CC3)c2)c2cc(C3CCNCC3)[nH]c2n1 | 48.8 | 51.8 | 252 | – | – | – | – |
| CC(C)N1CCC(c2cc3c(-c4cnn(CC5CC5)c4)c(Cl)cnc3[nH]2)CC1 | 73.3 | 32.4 | 94.8 | – | – | – | – |
| Clc1cnc2[nH]c(C3CCNCC3)cc2c1-c1cnn(CC2CC2)c1 | 11.5 | 14.5 | 14.7 | – | – | – | – |
| CC(=O)N[C@@H]1CCC[C@H](C(=O)Nc2cc(-c3cnn4c3CC(C)(C)C4)c(Cl)cn2)C1 [ZEMIRCICLIB] | – | – | – | 0.992 | 0.52 | 78.1 | 6 |
